The subject of this experiment is medullary pheochromocytoma (PC 12) cells. In words: PC12 cell differentiation (morphology) assay. Conditions: TPA 10 ng per ml, negative control. In kind it is cell-based. As to the method:
Cells: PC12 cell line derived from medullary pheochromocytoma cells were used to undertake studies described bellow. PC 12 cells were obtained from the American Type Culture Collection and maintained in RPMI-1640 supplemented with 10% fetal bovine serum (HYCLONE Inc), penicillin (100 U/ml) and streptomycin (100 µg/ml).
Methods: To evaluate the effect of colostrum, colostrinin and its component peptides on cell differentiation 3 x 10^4 logarithmically replicating (70% confluence) PC 12 cells were seeded in 24 x well plates and cells were allowed to adhere and grow for 24 hours. Serum containing media were aspirated and replaced for serum-free RPMI containing appropriate amount of antibiotics. In four parallel, increasing concentrations (0.1, 1, 10 and 100 µg per ml) of colostrum, colostrinin and its component peptides were added directly into the media and incubated at 37°C. As a positive control, nerve growth factor (NGF) 7S (Gibco-BRL) was used at 100 ng per ml concentration (Chao et al., Cell, 68, 995-997 (1992); and Marshall et al., Cell, 80, 179-185 (1995)). Phorbol 12-myristate 13-acetate (TPA: 10 ng per ml) was used as a negative control. Eight hours later the media were changed and RPMI-1640 was added containing 1% or 10% fetal bovine serum. The cultures were microscopically investigated 2nd, 4th and 6th days after treatment. […]

Consider Phorbol 12-myristate 13-acetate [TPA], for which the “background level of differentiation” value is listed as “less than 0.01%”.

Source of the values: EP1238058B1, “USE OF COLOSTRININ, C[…] AND ANALOGS THEREOF TO PROMOTE NEURAL CELL DIFFERENTIATION” (THE UNIVERSITY OF TEXAS SYSTEM, priority 1999, dated 2001).
